Reference: ChEMBL document CHEMBL1157596, “Colony stimulating factor-1 receptor as a target for small molecule inhibitors” (Bioorg Med Chem, 2010)

Tests used:
Assay type in all cases: cell-based
Parameters in all cases: scale not given: the % may be the effect or the level left
[1] = target: Macrophage colony-stimulating factor 1 receptor (Homo sapiens) (UniProt P07333); experiment: Inhibition of CSF1-stimulated human FMS autophosphorylation expressed in growth factor dependent mouse FDC-P1 cells assessed as phosphorylated receptor level at 31 nM relative to control by Western blot
[2] = target: Macrophage colony-stimulating factor 1 receptor (Homo sapiens) (UniProt P07333); experiment: Inhibition of CSF1-stimulated human FMS autophosphorylation expressed in growth factor dependent mouse FDC-P1 cells assessed as phosphorylated receptor level at 500 nM relative to control by Western blot
[3] = target: Macrophage colony-stimulating factor 1 receptor (Homo sapiens) (UniProt P07333); experiment: Inhibition of CSF1-stimulated human FMS autophosphorylation expressed in growth factor dependent mouse FDC-P1 cells assessed as phosphorylated receptor level at 1 nM relative to control by Western blot
[4] = target: Macrophage colony-stimulating factor 1 receptor (Homo sapiens) (UniProt P07333); experiment: Inhibition of CSF1-stimulated human FMS autophosphorylation expressed in growth factor dependent mouse FDC-P1 cells assessed as phosphorylated receptor level at 1.1 uM relative to control by Western blot
[5] = target: Macrophage colony-stimulating factor 1 receptor (Homo sapiens) (UniProt P07333); experiment: Inhibition of CSF1-stimulated human FMS autophosphorylation expressed in growth factor dependent mouse FDC-P1 cells assessed as phosphorylated receptor level at 10 uM relative to control by Western blot
[6] = target: Macrophage colony-stimulating factor 1 receptor (Homo sapiens) (UniProt P07333); experiment: Inhibition of CSF1-stimulated human FMS autophosphorylation expressed in growth factor dependent mouse FDC-P1 cells assessed as phosphorylated receptor level at 0.33 uM relative to control by Western blot
[7] = target: Macrophage colony-stimulating factor 1 receptor (Homo sapiens) (UniProt P07333); experiment: Inhibition of CSF1-stimulated human FMS autophosphorylation expressed in growth factor dependent mouse FDC-P1 cells assessed as phosphorylated receptor level at 3.3 uM relative to control by Western blot
[8] = target: Macrophage colony-stimulating factor 1 receptor (Homo sapiens) (UniProt P07333); experiment: Inhibition of CSF1-stimulated human FMS autophosphorylation expressed in growth factor dependent mouse FDC-P1 cells assessed as phosphorylated receptor level at 0.11 uM relative to control by Western blot
[9] = target: Macrophage colony-stimulating factor 1 receptor (Homo sapiens) (UniProt P07333); experiment: Inhibition of CSF1-stimulated human FMS autophosphorylation expressed in growth factor dependent mouse FDC-P1 cells assessed as phosphorylated receptor level at 5 nM relative to control by Western blot
[10] = target: Macrophage colony-stimulating factor 1 receptor (Homo sapiens) (UniProt P07333); experiment: Inhibition of CSF1-stimulated human FMS autophosphorylation expressed in growth factor dependent mouse FDC-P1 cells assessed as phosphorylated receptor level at 50 nM relative to control by Western blot

Chain of Macrophage colony-stimulating factor 1 receptor (Homo sapiens) (P07333 whole entry): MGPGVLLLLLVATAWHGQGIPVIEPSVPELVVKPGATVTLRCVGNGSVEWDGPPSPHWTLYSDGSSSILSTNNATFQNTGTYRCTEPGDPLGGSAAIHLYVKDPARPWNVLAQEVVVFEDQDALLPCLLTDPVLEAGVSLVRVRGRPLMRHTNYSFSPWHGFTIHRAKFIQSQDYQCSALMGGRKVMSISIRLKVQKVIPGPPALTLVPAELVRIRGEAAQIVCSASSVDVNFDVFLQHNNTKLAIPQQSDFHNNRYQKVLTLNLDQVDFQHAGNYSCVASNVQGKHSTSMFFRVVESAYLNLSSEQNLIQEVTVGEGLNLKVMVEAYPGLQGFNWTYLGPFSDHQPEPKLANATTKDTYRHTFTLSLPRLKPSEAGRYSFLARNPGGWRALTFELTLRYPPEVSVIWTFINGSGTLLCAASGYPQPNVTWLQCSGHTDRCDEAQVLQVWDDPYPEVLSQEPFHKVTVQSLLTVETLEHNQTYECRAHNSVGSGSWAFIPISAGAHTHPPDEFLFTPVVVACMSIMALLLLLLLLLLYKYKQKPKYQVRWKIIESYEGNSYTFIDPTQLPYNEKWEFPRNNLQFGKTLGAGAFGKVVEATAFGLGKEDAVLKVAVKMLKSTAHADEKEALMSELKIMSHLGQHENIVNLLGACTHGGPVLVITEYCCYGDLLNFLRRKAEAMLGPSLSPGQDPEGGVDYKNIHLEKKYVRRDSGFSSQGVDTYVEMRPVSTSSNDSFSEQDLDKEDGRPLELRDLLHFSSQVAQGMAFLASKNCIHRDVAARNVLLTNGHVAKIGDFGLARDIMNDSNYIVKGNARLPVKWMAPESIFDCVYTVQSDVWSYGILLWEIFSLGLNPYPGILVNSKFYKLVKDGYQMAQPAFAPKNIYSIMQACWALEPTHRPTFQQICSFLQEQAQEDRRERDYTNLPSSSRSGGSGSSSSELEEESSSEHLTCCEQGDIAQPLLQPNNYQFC

CCN(CC)CCNC(=O)c1c(C)[nH]c(/C=C2\C(=O)Nc3ccc(F)cc32)c1C gave an Activity [1] of 37%, an Activity [2] of 2% and an Activity [3] of 90%.
C[C@]12O[C@H](C[C@]1(O)CO)n1c3ccccc3c3c4c(c5c6ccccc6n2c5c31)CNC4=O showed an Activity [3] of 85%.
Molecule CN(C)S(=O)(=O)c1ccc2c(c1)/C(=C/c1cc3c([nH]1)CCCC3)C(=O)N2 has an Activity [4] of 104%, an Activity [5] of 106% and an Activity [6] of 109%. The Activity [7] was 97% and the Activity [8] was 104%.
Work on CO[C@@H]1[C@H](N(C)C(=O)c2ccccc2)C[C@H]2O[C@]1(C)n1c3ccccc3c3c4c(c5c6ccccc6n2c5c31)C(=O)NC4 yielded an Activity [2] of 3%, an Activity [9] of 110% and an Activity [10] of 21%.
